# According to paper PMC6766655, “AhR–ROR-γt complex is a therapeutic target for MAP4K3/GLK^highIL-17A^high subpopulation of systemic lupus erythematosus” (The FASEB Journal, 2019):
# What was measured:
# GLK kinase domain = target: T1, GLK kinase domain (Homo sapiens, UniProt Q8IVH8); test: In vitro GLK kinase assay with kinase-dead PKC-θ (K409W) as substrate; type: biochemical; details: GST-tagged kinase-dead PKC-θ (K409W) substrate; Fig. 3B
# T1 construct: Recombinant proteins of GLK kinase domain plus recombinant proteins of GST-tagged kinase-dead PKC-θ (K409W) were subjected to in vitro kinase assays; made in house; host or cells: Escherichia coli (BL21)
# T1 sequence (Q8IVH8 16-273 limits assumed): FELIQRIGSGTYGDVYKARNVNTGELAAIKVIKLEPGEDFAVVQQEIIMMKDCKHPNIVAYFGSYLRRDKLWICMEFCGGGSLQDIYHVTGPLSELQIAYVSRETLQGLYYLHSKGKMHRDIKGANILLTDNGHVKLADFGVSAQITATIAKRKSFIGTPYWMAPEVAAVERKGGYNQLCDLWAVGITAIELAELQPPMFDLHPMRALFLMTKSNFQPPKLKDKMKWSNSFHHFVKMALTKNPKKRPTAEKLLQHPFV
# Method: GLK kinase activity was determined by measuring the rate of ADP production in the in vitro kinase reaction using ADP-Glo Kinase Assay Kit (Promega). For the kinase reaction, recombinant proteins of the GLK kinase domain (1 μg) were incubated with recombinant proteins of kinase-dead PKC-θ (K409W; 0.15 μg) plus ATP (0.1 mM) or myelin basic protein (MilliporeSigma) plus ATP (0.1 mM) in kinase buffer [40 mM Tris-HCl (pH 7.5), 20 mM MgCl2, 0.1 mg/ml bovine serum albumin, 10 mM DTT, and 0.1 mM Na3VO4] for 30 min at room temperature.
# Cell-based high‐throughput screening was conducted against a representative library of 100,000 molecules at ∼10 μM. The Chinese hamster ovary CHO-K1 (ATCC, CCL-61) cells expressing GLK and NF-κB luciferase (Luc) reporter were used. The reaction volume was 5 μl (500 cells) per well in 1536‐well plates. There was no positive control. This high‐throughput screening campaign was successful, with a determined Z' factor of 0.57 ∼ 0.60. […] At the end, 1392 compounds were identified for high inhibition (>80%) of the GLK-induced NF-κB luciferase activity of CHO‐GLK‐Luc cells. […]
# Figure 3 Verteporfin (C1) blocks the AhR–ROR-γt complex in human autoimmune T cells. […] D) Quantification of the PLA signals shown in panel C. *P < 0.05, ***P < 0.001 (2-tailed Student’s t test).
# HGK (MAP4K4) = target: T2, HGK (MAP4K4) (Homo sapiens, UniProt O95819); test: In vitro kinase assay, myelin basic protein as substrate (ADP-Glo); type: biochemical; details: recombinant kinase domain
# T2 construct: Recombinant proteins of kinase domains of various MAP4Ks were used; purchased Promega
# Lck-GLK Tg mice = test: Serum cytokines and autoantibodies (ELISA) in Lck-GLK Tg mice; type: in vivo; details: 0.4 μg/g body weight i.v. every 3 d
# Excerpt: Lck-GLK Tg mice with C57BL/6J backgrounds and GLK-deficient mice with C57BL/6J backgrounds were generated as previously described ([18], [21]). Their respective wild-type littermates with C57BL/6J backgrounds were used as controls. Mice used in this report were either 20-wk-old sex-matched littermates or 8–10-wk-old sex-matched [all female for EAE, all male for collagen-induced arthritis (CIA)] C57BL/6J wild-type mice. All mice used in this study were maintained in temperature-controlled and pathogen-free cages. All animal experiments were performed in the Association for Assessment and Accreditation of Laboratory Animal Care–animal housing facilities at National Health Research Institutes. All mice were used according to the protocols and guidelines approved by the Institutional Animal Care and Use Committee of National Health Research Institutes.
# Lck-GLK Tg mice were administered verteporfin (0.4 μg/g body weight) by intravenous injection every 3 d for a period of 30 d (Fig. 4A). […] Moreover, overproduction of autoantibodies (anti-nuclear antibody, anti-dsDNA antibody, and rheumatoid factor) in Lck-GLK Tg mice was also abolished by the verteporfin treatment for 30 d (Fig. 4C). […] To further verify that verteporfin is also effective in IL-17A–mediated animal models, we treated wild-type mice with verteporfin during induction of EAE and CIA.
# Figure 4 Verteporfin (C1) suppresses IL-17 production and autoimmune responses in mice. A–C) Effect of C1 administration (0.4 μg/g body weight every 3 d for a period of 30 d) on serum IL-17A and autoantibodies in 20-wk-old Lck-GLK Tg mice. B) ELISA of serum IL-17A, IL-6, TNF-α, IFN-γ, and IL-17F in Lck-GLK Tg mice treated with C1 or PBS for 16 d. C) ELISA of serum autoantibodies in Lck-GLK Tg mice treated with C1 or PBS for 30 d. Means ± SEM are shown; n = 4/group. D) EAE induction in wild-type C57BL/6J mice treated with PBS or C1 (0.4 μg/g body weight every 3 d). Clinical scores are presented on a scale of 1–5. PBS group, n = 10; C1 group, n = 7. E) ELISA of IL-17A in the sera from MOG-immunized mice at day 16. […]
# T2 sequence (O95819 25-289 limits assumed): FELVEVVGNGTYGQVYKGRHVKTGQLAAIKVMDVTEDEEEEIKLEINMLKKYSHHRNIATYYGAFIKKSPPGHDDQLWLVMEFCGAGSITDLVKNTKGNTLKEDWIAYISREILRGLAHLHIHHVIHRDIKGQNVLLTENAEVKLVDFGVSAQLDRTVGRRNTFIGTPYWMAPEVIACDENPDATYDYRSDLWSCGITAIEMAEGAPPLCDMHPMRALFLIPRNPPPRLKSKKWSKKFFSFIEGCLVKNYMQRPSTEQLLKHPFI
substance,measurement,setting,value
verteporfin,GLK kinase activity in vitro,GLK kinase domain,efficiently inhibited
same,IC50,HGK (MAP4K4),4.92 nM
same,"serum levels of IL-6, TNF-α, IFN-γ, and IL-17F",Lck-GLK Tg mice; 16 d,not significantly changed
same,serum IL-17A,"Lck-GLK Tg mice; 16 d, vs PBS",significantly decreased
same,"overproduction of autoantibodies (anti-nuclear antibody, anti-dsDNA antibody, rheumatoid factor)",Lck-GLK Tg mice; 30 d,abolished
